{
  "source": "paper PMC3033200",
  "about": "(Angewandte Chemie (International ed. in English), 2010)",
  "key": {"[1]": {"system": "ΔF508-CFTR", "test": "Ussing chamber chloride efflux", "type": "cell-based, human"}, "[2]": {"system": "CAL PDZ domain (CALP)", "test": "NMR HSQC binding-site mapping on 15N-CALP", "conditions": "15N-CALP HSQC"}, "[3]": {"system": "ΔF508-CFTR", "type": "cell-based, human", "conditions": "surface biotinylation and Western blotting; p = 0.35, n = 14"}, "[4]": {"system": "ΔF508-CFTR", "test": "Ussing chamber chloride efflux, residual ΔISC after CHX", "type": "cell-based, human"}, "[5]": {"system": "CFBE-ΔF cells", "test": "peptide uptake by fluorescence microscopy", "conditions": "BioPORTER delivery, fluorescence microscopy (Figure S1)"}},
  "note": "“Also recorded” adds a separate entry of the source.",
  "data": [
    {"substance": "ANSRWPTSII [iCAL36]", "values": [
      {"measurement": "effect on ΔF508-CFTR biogenesis/maturation", "setting": "[1]; comparison of ΔISC increase in absence (26%) and presence (25%) of CHX", "result": "does not strongly affect biogenesis"},
      {"measurement": "mode of binding / binding site on CALP", "setting": "[2]; 800 μM iCAL36, normalized chemical shift perturbation Δ ≥ 0.15", "result": "competitive inhibitor"},
      {"measurement": "additional contacts compared to CFTR8", "setting": "[2]; compared to the CFTR8 octamer, listed as iCAL36_10", "result": "extends beyond that of CFTR8; also recorded: makes additional contacts at the distal end of the peptide-binding groove"}
    ]},
    {"substance": "F*-ANSRWPTSII [F*-iCAL36]", "values": [
      {"measurement": "increase in apical ΔF508-CFTR (significance, words)", "setting": "[3]", "result": "not statistically significant"},
      {"measurement": "residual ΔISC increase vs control monolayers", "setting": "[4]; CHX 2 h, relative to control (F*-SCR) monolayers, p = 0.0005", "result": 25, "unit": "%"},
      {"measurement": "peptide uptake", "setting": "[5]", "result": "confirmed"}
    ]},
    {"substance": "AALKEETEEEVQDTRL [CFTR16]", "values": [
      {"measurement": "increase in ΔISC", "setting": "[1]; absence of CHX, relative to the scrambled control (Figure 5)", "result": "did not significantly increase"}
    ]},
    {"substance": "F*-SPTINSAIWR [F*-SCR, reference compound]", "values": [
      {"measurement": "residual ΔISC, % of baseline", "setting": "[4]; 2 h CHX exposure, % of 0 h starting value, n = 9", "result": 60, "unit": "%"},
      {"measurement": "peptide uptake", "setting": "[5]", "result": "confirmed"},
      {"measurement": "shift in chloride efflux (ΔISC) compared to untreated cells", "setting": "[1]; CFBE-ΔF polarized monolayers, 37 °C, peptide/BioPORTER (500 μM), compared to untreated cells", "result": "≤ 4", "unit": "%"}
    ]}
  ]
}
